According to article PMC7506137, “Selective Phosphodiesterase 1 Inhibitor BTTQ Reduces Blood Pressure in Spontaneously Hypertensive and Dahl Salt Sensitive Rats: Role of Peripheral Vasodilation” (Frontiers in Physiology, 2020):
pIC50: −log10 of the molar value. Where two headings read alike, the source gives them in different places.

Key:
Sprague Dawley rats = experiment: Rat ear temperature (vasodilation); type: in vivo
Method: Male Sprague Dawley rats at 6 to 7 weeks were dosed orally by p.o. gavage with different doses of BTTQ formulated in 1% hydroxyethlycellulose (Dow Corning, Midland, MI, United States) (w/v), 0.25% polysorbate 80 (Sigma-Aldrich, St. Louis, MO, United States) (v/v), and 0.05% antifoam (v/v; Dow Corning, Midland, MI, United States) in purified water. Following dosing, ear temperature was measured by using a k-type thermocouple probe digital thermometer (Cole Parmer) every hour for 6 h and then at 24 h. Blood samples for plasma exposure measurement were obtained at the same time. Blood was collected via a tail snip directly into a 20-μL EDTA-coated capillary and immediately spotted onto a Whatman DMPK-C DBS card (GE Healthcare Bio-Sciences). Tail snips were performed by removing approximately 1 mm of the tail by using a scalpel. Blood flow was initiated by gentle squeezing of the tail. No analgesia or anesthesia was used during blood collections. A single sample and spot were collected per time point. The DBS cards were allowed to dry for approximately 2 h at room temperature, after which the cards were placed in a zip-top bag, stored, and shipped at ambient temperature.
All data in this manuscript were presented as mean ± SEM with a significance level of p < 0.05, and n represents the number of individual animals. The significance of differences in concentration-response curves in the ear temperature and, myograft study were calculated using t-test, compare to the vehicle group. The EC50 was calculated using GraphPad Prism 8.3 using a 4-parameter logistic non-linear curve fit model. Single-dose rat telemetry data for normal and SHR rats and repeat-dose telemetry data in Dahls salt-sensitive rats were analyzed by two-way repeated measures ANOVA. Treatment group main effects were compared by Tukey’s HSD method. All telemetry data were analyzed with GraphPad Prism 8.3.

Rat PDE3A = target: T1, Rat PDE3A (Rattus norvegicus, UniProt Q62865); experiment: PDE scintillation proximity enzyme assay; type: biochemical
T1 construct: made in house; host or cells: baculovirus-infected insect cells
T1 sequence (Q62865 1-1141): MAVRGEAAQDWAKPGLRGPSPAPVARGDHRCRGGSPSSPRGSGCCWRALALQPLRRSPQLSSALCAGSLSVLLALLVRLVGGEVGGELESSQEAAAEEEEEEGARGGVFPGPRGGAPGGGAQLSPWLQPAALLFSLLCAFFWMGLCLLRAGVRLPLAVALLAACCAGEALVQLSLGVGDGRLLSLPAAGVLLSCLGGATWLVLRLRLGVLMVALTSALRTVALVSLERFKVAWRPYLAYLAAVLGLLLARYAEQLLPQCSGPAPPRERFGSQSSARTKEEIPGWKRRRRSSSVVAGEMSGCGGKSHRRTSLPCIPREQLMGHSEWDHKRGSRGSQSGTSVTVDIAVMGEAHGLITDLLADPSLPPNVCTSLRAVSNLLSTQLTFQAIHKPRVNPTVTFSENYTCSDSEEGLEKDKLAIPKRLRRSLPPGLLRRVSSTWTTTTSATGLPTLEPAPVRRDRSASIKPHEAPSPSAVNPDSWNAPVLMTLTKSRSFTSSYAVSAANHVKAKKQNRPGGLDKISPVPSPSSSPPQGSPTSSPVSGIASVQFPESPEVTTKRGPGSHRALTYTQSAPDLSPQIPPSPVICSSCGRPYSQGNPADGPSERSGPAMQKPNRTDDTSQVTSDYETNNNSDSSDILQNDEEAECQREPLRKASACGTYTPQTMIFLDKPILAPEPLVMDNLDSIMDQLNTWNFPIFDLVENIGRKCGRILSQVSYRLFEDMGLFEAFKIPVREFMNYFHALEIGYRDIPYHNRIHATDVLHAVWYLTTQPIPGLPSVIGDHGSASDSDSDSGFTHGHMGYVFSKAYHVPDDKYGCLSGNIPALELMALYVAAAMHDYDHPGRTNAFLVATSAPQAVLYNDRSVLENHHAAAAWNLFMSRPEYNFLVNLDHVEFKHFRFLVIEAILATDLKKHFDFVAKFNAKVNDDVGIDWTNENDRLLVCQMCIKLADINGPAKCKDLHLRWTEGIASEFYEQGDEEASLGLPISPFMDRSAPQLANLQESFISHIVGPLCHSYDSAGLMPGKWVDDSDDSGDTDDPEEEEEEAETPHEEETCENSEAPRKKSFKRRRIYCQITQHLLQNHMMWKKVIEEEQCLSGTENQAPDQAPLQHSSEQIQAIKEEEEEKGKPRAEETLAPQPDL
Method: All PDE enzyme activities were measured with a yittrium silicate based scintillation proximity assay that detects radioactive nucleotide monophosphates but not cyclic monophosphates. Assays are conducted in a total volume of 50 μl in 384 well plates (3706, Corning): comprised of 24 μl enzyme, 1 μl compound, and 25 μl of cyclic nucleotide. The general assay buffer consists of 50 mM Tris-HCl (pH 7.5) and 0.1% (w/v) bovine serum albumin (Fatty Acid Free, Sigma-Aldrich). Enzyme concentrations, substrate concentrations, and various PDE-specific buffer additives are described in Supplementary Table 1. Compounds to be tested are diluted in pure dimethyl sulfoxide (DMSO) using 10-point concentration-response curves, and 1 μl is acoustically dispensed into assay plates using the Echo555 (LabCyte). Maximal compound concentration in the reaction mixture is either 10 or 100 μM. Compounds at the appropriate concentration are pre-incubated with either of the PDE enzymes for 30 min before the reaction is started by the addition of substrate ([8-^3H]-cAMP, 20.7 Ci/mmol or [8-^3H]-cGMP; 6.5 Ci/mmol, Perkin Elmer). Reactions are allowed to proceed for 60 min at room temperature before quenching. Next, reactions are stopped by the addition of 400 μg/per well SPA beads (RPNQ0150, Perkin Elmer) and a potent non-selective PDE inhibitor to quench the reaction. Bead bound radioactivity (product) is quantified 12 h later a Microbeta counter (Perkin Elmer). Data is normalized to % inhibition using standard methods ([Campbell et al., 2004]), and IC50 values were plotted using PRISM (GraphPad Software) using the 4 parameter logistic equation ([Campbell et al., 2004]). Data for potency values are expressed as the geometric mean and arithmetic standard deviation.

IC50 (Rat PDE3A): inactive
pIC50 (Rat PDE3A; read-out: IC50): < 4.00
Structure (SMILES): O=c1c2nnc(C3(C4CC4)CC3)n2c2c(n1CC1CC1)CCCC2 [BTTQ, 1-[1,1′-bi(cyclopropyl)-1-yl]-5-(cyclopropylmethyl)-6,7,8,9-tetrahydro[1,2,4]triazolo[4,3-A]quinoxaline-4(5H)-one]
increase of ear temperature compared to the vehicle control (Sprague Dawley rats; 3 mg/kg single oral dose, within 1 h): 14%
ear temperature (Sprague Dawley rats; 0.1, 0.3, and 1 mg/kg single oral dose): significant dose-dependent increase
ED50 (Sprague Dawley rats; Rattus norvegicus, single oral dose, 1 h time point, four parametric logistic equation, read-out: median effective dose (ED50), ear temperature): 0.14 mg/kg
time at which ear temperature returned to baseline (Sprague Dawley rats; all doses, single oral dose): 6 h
time for which the increase in ear temperature stayed significant (Sprague Dawley rats; single oral dose): up to 3 h
